# Reference: PubChem BioAssay (NCI)
#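 Exposure lasted 48 hours, with cells grown in 96-well plates and compounds tested at five concentrations. At the GI50, growth is halved. Definition used: TGI = concentration required for complete inhibition of growth.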
# Assays:
# Assay in all cases: DTP human tumour cell line panel, 48 h
# [1] = system: SN12C renal
# [2] = system: SR leukemia
# [3] = system: OVCAR-8 ovarian
# [4] = system: UACC-257 melanoma
# [5] = system: U251 CNS
# [6] = system: NCI/ADR-RES ovarian
# [7] = system: HL-60(TB) leukemia
# [8] = system: SF-539 CNS
# [9] = system: K-562 leukemia
# [10] = system: HCT-15 colon
# [11] = system: UO-31 renal
# [12] = system: SF-295 CNS
# [13] = system: COLO 205 colon
# [14] = system: SK-MEL-2 melanoma
# [15] = system: HT29 colon
# [16] = system: SW-620 colon
# [17] = system: KM12 colon
# [18] = system: CCRF-CEM leukemia
# [19] = system: OVCAR-4 ovarian
# [20] = system: TK-10 renal
# [21] = system: DU-145 prostate
# [22] = system: OVCAR-3 ovarian
# [23] = system: HCT-116 colon
# [24] = system: HCC-2998 colon
# [25] = system: SNB-75 CNS
# [26] = system: OVCAR-5 ovarian
# [27] = system: MOLT-4 leukemia
# [28] = system: UACC-62 melanoma
# [29] = system: 786-0 renal
# [30] = system: SNB-19 CNS
# [31] = system: SK-MEL-5 melanoma
# [32] = system: MDA-MB-468 breast
# [33] = system: RPMI-8226 leukemia
# [34] = system: SK-MEL-28 melanoma
# [35] = system: MCF7 breast
# [36] = system: LOX IMVI melanoma
# [37] = system: MALME-3M melanoma
# [38] = system: NCI-H226 lung
# [39] = system: T-47D breast
# [40] = system: PC-3 prostate
# [41] = system: MDA-MB-231 breast
# [42] = system: HS 578T breast
# [43] = system: M14 melanoma
# [44] = system: MDA-MB-435
# [45] = system: CAKI-1 renal
# [46] = system: SF-268 CNS
# [47] = system: EKVX NSCLC
# [48] = system: NCI-H460 lung
# [49] = system: HOP-62 NSCLC
# [50] = system: NCI-H23 lung
# [51] = system: ACHN renal
# [52] = system: BT-549 breast
# [53] = system: A498 renal
# [54] = system: NCI-H522 lung
# [55] = system: IGROV1 ovarian
# [56] = system: A549 NSCLC
# [57] = system: SK-OV-3 ovarian
# [58] = system: HOP-92 NSCLC
smiles,measurement,setting,value
Cc1cc2nc3c4ccccc4n(CC4=NCCN4)c3nc2cc1C,GI50,[1],1590 nM
same,TGI,[1],12.2 µM
same,GI50,[2],523 nM
same,TGI,[2],9.37 µM
same,GI50,[3],2530 nM
same,TGI,[3],19.3 µM
same,GI50,[4],10.6 µM
same,TGI,[4],25.3 µM
same,GI50,[5],1250 nM
same,TGI,[5],4.21 µM
same,GI50,[6],3.5 µM
same,TGI,[6],17.8 µM
same,GI50,[7],3.06 µM
same,TGI,[7],14.4 µM
same,GI50,[8],1590 nM
same,TGI,[8],3.06 µM
same,GI50,[9],1780 nM
same,TGI,[9],> 100 µM
same,GI50,[10],3.44 µM
same,TGI,[10],15.5 µM
same,GI50,[11],605 nM
same,TGI,[11],6.49 µM
same,GI50,[12],1120 nM
same,TGI,[12],10.7 µM
same,GI50,[13],3.11 µM
same,TGI,[13],20.2 µM
same,GI50,[14],15.9 µM
same,TGI,[14],30.5 µM
same,GI50,[15],1520 nM
same,TGI,[15],3.6 µM
same,GI50,[16],997 nM
same,TGI,[16],11.9 µM
same,GI50,[17],5.51 µM
same,TGI,[17],22.6 µM
same,GI50,[18],2370 nM
same,TGI,[18],42.2 µM
same,GI50,[19],5.76 µM
same,TGI,[19],20.8 µM
same,GI50,[20],6.35 µM
same,TGI,[20],20.7 µM
same,GI50,[21],3.08 µM
same,TGI,[21],14.4 µM
same,GI50,[22],5.89 µM
same,TGI,[22],22.6 µM
same,GI50,[23],1500 nM
same,TGI,[23],6.19 µM
same,GI50,[24],2690 nM
same,TGI,[24],15.7 µM
same,GI50,[25],1490 nM
same,TGI,[25],10.7 µM
same,GI50,[26],2620 nM
same,TGI,[26],10.6 µM
same,GI50,[27],1170 nM
same,TGI,[27],6.54 µM
same,GI50,[28],1910 nM
same,TGI,[28],11.8 µM
same,GI50,[29],3.48 µM
same,TGI,[29],13.3 µM
same,GI50,[30],3.21 µM
same,TGI,[30],15.9 µM
same,GI50,[31],6.62 µM
same,TGI,[31],19.2 µM
same,GI50,[32],2060 nM
same,TGI,[32],7.09 µM
same,GI50,[33],2550 nM
same,TGI,[33],36 µM
same,GI50,[34],7.93 µM
same,TGI,[34],20.6 µM
same,GI50,[35],747 nM
same,TGI,[35],12.5 µM
same,GI50,[36],1190 nM
same,TGI,[36],2470 nM
same,GI50,[37],1400 nM
same,TGI,[37],2850 nM
same,GI50,[38],1440 nM
same,TGI,[38],5 µM
same,GI50,[39],3.07 µM
same,TGI,[39],15.5 µM
same,GI50,[40],1750 nM
same,TGI,[40],> 100 µM
same,GI50,[41],2010 nM
same,TGI,[41],5.72 µM
same,GI50,[42],11.2 µM
same,TGI,[42],29.7 µM
same,GI50,[43],3.1 µM
same,TGI,[43],14.1 µM
same,GI50,[44],3.67 µM
same,TGI,[44],14.3 µM
same,GI50,[45],1380 nM
same,TGI,[45],11.7 µM
same,GI50,[46],4.81 µM
same,TGI,[46],24 µM
same,GI50,[47],10.3 µM
same,TGI,[47],22.5 µM
same,GI50,[48],634 nM
same,TGI,[48],1930 nM
same,GI50,[49],2340 nM
same,TGI,[49],11.8 µM
same,GI50,[50],2640 nM
same,TGI,[50],13.1 µM
same,GI50,[51],1740 nM
same,TGI,[51],5.3 µM
same,GI50,[52],6.52 µM
same,TGI,[52],22.7 µM
same,GI50,[53],6.15 µM
same,TGI,[53],20.9 µM
same,GI50,[54],1860 nM
same,TGI,[54],15.1 µM
same,GI50,[55],1990 nM
same,TGI,[55],15.4 µM
same,GI50,[56],1280 nM
same,TGI,[56],16.6 µM
same,GI50,[57],2430 nM
same,TGI,[57],9.95 µM
same,GI50,[58],2840 nM
same,TGI,[58],17.5 µM
